Laboratory results published in ChEMBL document CHEMBL5291721, “A preclinical secondary pharmacology resource illuminates target-adverse drug reaction associations of marketed drugs” (Nat Commun, 2023).

How the values were obtained:
[1] = biological target: T1, Thromboxane A2 receptor (Homo sapiens, UniProt P21731); type: functional, cell-based
T1 sequence (P21731 whole entry): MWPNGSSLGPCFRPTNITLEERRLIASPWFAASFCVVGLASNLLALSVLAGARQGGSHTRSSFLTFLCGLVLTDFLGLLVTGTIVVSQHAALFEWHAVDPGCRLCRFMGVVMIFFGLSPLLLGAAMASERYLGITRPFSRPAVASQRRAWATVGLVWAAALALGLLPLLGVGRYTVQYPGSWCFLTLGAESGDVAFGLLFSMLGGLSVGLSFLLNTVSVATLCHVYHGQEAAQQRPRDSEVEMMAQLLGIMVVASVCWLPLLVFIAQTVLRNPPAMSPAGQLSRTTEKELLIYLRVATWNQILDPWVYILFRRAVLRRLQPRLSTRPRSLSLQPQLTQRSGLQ

[2] = biological target: cGMP-inhibited 3',5'-cyclic phosphodiesterase 3A (Homo sapiens, UniProt Q14432); type: functional
[3] = biological target: T2, Adenosine receptor A3 (Homo sapiens, UniProt P0DMS8)
T2 sequence (P0DMS8 whole entry): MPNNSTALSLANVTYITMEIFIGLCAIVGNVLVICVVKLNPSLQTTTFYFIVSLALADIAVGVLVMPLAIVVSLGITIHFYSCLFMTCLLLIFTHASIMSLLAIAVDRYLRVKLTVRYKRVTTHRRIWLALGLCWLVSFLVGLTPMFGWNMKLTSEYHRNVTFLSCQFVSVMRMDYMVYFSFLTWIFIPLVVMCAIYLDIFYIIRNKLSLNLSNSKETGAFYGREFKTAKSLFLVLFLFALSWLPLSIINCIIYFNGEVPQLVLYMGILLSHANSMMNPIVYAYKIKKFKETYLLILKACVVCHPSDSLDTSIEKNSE

[4] = biological target: T3, Alpha-1A adrenergic receptor (Homo sapiens, UniProt P35348); type: functional, cell-based
T3 sequence (P35348 whole entry): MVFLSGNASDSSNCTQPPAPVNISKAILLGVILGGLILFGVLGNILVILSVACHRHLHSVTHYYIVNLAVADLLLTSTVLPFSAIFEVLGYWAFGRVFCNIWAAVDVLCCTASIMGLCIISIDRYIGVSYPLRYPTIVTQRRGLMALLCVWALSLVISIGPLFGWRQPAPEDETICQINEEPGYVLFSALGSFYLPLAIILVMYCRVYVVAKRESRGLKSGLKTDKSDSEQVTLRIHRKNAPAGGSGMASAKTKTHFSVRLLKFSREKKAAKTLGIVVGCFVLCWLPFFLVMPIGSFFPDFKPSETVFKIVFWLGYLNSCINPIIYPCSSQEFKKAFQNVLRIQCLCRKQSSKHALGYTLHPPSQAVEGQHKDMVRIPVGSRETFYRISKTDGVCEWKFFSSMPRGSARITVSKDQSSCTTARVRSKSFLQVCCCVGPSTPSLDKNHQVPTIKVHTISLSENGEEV

[5] = biological target: Sodium-dependent noradrenaline transporter (Homo sapiens, UniProt P23975)
[6] = biological target: Prostaglandin G/H synthase 1 (Homo sapiens, UniProt P23219); type: functional
[7] = biological target: Beta-2 adrenergic receptor (Homo sapiens, UniProt P07550)
[8] = biological target: Kappa-type opioid receptor (Homo sapiens, UniProt P41145)
[9] = biological target: 5-hydroxytryptamine receptor 2B (Homo sapiens, UniProt P41595); type: functional, cell-based
[10] = biological target: T3, Alpha-1A adrenergic receptor; type: functional, cell-based; remark: listed apart in the source
[11] = biological target: T4, Alpha-2B adrenergic receptor (Homo sapiens, UniProt P18089)
T4 sequence (P18089 whole entry): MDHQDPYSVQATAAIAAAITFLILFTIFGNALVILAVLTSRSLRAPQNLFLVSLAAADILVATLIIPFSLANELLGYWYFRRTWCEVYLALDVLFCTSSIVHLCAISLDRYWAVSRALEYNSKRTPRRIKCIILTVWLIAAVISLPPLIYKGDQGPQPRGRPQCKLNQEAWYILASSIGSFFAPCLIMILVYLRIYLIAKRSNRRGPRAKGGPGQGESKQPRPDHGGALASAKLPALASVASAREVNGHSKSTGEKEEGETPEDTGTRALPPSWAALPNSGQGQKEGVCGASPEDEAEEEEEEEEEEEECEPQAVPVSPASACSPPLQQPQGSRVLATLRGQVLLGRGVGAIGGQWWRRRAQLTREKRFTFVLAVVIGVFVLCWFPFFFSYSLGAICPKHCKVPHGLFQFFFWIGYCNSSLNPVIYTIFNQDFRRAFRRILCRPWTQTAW

[12] = biological target: T5, Estrogen receptor (Homo sapiens, UniProt P03372)
T5 sequence (P03372 whole entry): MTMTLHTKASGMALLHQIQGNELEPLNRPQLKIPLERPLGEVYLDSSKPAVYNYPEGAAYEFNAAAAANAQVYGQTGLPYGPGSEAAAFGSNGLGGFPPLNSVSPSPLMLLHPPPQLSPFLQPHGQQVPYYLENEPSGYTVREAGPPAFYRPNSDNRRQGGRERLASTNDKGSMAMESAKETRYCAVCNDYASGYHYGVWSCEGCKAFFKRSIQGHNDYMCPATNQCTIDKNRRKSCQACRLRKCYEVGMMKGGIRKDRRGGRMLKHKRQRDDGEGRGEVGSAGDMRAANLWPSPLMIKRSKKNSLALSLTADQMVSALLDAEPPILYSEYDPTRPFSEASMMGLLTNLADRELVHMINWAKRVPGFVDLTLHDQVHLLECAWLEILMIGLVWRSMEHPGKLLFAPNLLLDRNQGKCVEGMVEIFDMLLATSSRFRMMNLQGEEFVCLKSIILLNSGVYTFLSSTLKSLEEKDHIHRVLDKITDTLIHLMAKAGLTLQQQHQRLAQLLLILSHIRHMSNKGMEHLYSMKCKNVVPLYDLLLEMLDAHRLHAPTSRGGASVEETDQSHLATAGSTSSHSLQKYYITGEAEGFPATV
Note: assay procedure not described here.

Kappa-type opioid receptor, sequence (P41145 whole entry): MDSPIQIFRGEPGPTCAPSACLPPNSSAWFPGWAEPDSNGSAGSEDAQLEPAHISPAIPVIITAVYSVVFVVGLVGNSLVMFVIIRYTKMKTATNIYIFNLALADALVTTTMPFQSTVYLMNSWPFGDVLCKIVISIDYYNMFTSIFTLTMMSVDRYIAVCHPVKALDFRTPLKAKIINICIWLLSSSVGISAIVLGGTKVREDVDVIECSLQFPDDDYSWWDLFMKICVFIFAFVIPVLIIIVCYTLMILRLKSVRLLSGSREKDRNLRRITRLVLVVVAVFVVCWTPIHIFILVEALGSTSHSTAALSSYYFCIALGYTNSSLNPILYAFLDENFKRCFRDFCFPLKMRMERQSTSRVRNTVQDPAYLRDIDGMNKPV
5-hydroxytryptamine receptor 2B, sequence (P41595 whole entry): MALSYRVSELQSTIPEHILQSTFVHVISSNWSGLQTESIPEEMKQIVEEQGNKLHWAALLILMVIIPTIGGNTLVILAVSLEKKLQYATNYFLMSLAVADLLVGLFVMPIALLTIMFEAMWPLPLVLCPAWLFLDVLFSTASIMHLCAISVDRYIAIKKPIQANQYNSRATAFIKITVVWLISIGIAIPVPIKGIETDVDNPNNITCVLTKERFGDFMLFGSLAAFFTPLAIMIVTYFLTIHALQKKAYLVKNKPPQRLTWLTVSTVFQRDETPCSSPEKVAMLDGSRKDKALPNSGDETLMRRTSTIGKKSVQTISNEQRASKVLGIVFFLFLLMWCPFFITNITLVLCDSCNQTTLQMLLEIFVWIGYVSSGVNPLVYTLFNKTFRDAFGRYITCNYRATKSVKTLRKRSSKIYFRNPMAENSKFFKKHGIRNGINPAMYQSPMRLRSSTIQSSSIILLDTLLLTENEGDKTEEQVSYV
Prostaglandin G/H synthase 1, sequence (P23219 whole entry): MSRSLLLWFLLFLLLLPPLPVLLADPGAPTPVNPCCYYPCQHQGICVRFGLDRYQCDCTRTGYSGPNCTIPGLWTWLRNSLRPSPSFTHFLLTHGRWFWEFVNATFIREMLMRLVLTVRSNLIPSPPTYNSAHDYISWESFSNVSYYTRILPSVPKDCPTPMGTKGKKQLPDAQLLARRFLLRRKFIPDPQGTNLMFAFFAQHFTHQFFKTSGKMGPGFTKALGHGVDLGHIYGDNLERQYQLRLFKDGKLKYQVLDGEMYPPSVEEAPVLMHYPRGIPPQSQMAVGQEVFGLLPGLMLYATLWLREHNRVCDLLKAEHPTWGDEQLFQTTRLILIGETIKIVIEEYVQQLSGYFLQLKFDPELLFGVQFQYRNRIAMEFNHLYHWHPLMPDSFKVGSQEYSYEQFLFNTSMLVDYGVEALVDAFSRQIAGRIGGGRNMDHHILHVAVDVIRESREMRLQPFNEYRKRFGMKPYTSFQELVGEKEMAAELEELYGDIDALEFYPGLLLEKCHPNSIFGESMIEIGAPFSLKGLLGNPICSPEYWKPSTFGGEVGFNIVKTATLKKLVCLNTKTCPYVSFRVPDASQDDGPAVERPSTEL
Sodium-dependent noradrenaline transporter, sequence (P23975 whole entry): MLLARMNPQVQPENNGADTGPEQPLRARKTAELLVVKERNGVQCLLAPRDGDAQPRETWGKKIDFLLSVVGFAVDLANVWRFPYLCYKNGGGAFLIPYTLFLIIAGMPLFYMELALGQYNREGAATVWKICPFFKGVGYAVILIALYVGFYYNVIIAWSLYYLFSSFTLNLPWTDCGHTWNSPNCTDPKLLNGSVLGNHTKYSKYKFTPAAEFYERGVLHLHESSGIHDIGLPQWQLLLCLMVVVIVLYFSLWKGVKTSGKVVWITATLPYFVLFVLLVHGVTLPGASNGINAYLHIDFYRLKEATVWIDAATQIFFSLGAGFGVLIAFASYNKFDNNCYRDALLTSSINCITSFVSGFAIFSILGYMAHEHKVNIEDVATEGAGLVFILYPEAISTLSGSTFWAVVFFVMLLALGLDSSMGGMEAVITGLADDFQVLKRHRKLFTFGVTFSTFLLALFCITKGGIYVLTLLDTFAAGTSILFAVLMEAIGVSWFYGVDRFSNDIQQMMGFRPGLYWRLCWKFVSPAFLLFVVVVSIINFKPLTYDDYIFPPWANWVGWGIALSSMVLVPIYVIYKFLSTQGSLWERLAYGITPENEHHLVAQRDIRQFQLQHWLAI
Beta-2 adrenergic receptor, sequence (P07550 whole entry): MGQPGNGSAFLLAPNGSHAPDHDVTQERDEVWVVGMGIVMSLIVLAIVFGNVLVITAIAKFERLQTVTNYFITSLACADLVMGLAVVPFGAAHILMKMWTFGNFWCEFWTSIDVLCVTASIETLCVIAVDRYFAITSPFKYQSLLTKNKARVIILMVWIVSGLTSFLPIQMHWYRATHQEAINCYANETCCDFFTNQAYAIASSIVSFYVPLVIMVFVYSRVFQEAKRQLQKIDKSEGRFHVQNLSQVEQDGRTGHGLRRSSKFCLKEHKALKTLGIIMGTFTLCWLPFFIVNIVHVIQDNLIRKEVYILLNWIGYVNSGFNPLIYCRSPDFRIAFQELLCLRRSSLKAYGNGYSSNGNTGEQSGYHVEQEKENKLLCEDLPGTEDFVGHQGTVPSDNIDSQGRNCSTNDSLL
cGMP-inhibited 3',5'-cyclic phosphodiesterase 3A, sequence (Q14432 whole entry): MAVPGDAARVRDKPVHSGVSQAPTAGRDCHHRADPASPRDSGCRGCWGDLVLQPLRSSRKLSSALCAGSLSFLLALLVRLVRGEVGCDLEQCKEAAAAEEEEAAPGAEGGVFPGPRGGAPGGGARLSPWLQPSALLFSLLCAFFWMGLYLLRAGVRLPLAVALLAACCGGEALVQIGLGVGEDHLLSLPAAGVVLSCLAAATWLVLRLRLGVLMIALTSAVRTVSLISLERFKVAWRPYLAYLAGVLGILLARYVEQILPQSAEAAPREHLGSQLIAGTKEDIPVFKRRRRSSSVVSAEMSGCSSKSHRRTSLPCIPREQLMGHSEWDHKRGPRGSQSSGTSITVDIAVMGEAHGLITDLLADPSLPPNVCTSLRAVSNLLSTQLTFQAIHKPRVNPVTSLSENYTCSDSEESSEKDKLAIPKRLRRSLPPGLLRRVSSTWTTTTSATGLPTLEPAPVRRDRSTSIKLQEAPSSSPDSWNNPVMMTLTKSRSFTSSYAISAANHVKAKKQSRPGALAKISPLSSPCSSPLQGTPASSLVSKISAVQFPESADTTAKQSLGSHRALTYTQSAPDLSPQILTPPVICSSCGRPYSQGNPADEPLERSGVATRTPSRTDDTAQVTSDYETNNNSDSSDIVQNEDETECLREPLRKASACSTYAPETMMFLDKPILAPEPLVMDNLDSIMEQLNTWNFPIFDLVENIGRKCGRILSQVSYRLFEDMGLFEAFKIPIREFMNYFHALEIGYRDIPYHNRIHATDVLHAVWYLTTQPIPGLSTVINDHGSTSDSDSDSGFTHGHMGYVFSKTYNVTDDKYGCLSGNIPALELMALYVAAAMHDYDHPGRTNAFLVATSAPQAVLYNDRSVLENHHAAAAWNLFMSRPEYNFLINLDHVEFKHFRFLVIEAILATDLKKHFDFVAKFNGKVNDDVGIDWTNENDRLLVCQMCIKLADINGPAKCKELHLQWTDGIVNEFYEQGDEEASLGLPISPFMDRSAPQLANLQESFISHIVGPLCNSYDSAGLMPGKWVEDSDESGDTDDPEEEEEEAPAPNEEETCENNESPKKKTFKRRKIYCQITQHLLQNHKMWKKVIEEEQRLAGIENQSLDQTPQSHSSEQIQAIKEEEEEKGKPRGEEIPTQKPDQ

SMILES | AC50 [1] [µM] | AC50 [2] [µM] | AC50 [3] [µM] | AC50 [4] [µM] | AC50 [5] [µM] | AC50 [6] [µM] | AC50 [7] [µM] | AC50 [8] [µM] | AC50 [9] [µM] | AC50 [10] [µM] | AC50 [11] [µM] | AC50 [12] [µM]
CC(=O)O[C@]1(C(C)=O)CC[C@H]2[C@@H]3C=C(Cl)C4=CC(=O)CC[C@]4(C)[C@H]3CC[C@@]21C [CHLORMADINONE ACETATE] | 28.5 | > 30 | 21 | > 30 | > 30 | > 30 | – | – | – | – | – | –
CC1(C)S[C@@H]2[C@H](NC(=O)[C@H](N)c3ccccc3)C(=O)N2[C@H]1C(=O)OCOC(=O)[C@@H]1N2C(=O)C[C@H]2S(=O)(=O)C1(C)C [SULTAMICILLIN] | – | – | – | – | – | – | > 30 | > 30 | > 30 | > 30 | > 30 | > 30
CCN(CCCc1ccccc1)CCCc1ccccc1 [ALVERINE] | > 30 | > 30 | > 30 | > 30 | 1.15 | > 30 | – | – | – | – | – | –
COc1cc2c(cc1OC)CC(=O)N(CCCN(C)C[C@H]1Cc3cc(OC)c(OC)cc31)CC2 [IVABRADINE] | > 30 | > 30 | > 30 | > 30 | > 30 | > 30 | – | – | – | – | – | –
CCOC(=O)C1=C[C@]2(CC)CCCN3CCc4c(n1c1ccccc41)[C@@H]32 [VINPOCETINE] | – | – | – | – | – | – | – | > 30 | 13 | > 30 | 2.4 | –
COc1cc(N2CCC(N3CCN(C)CC3)CC2)ccc1Nc1ncc(Cl)c(Nc2ccccc2P(C)(C)=O)n1 [BRIGATINIB] | > 30 | > 30 | > 30 | > 30 | > 30 | > 30 | – | – | – | – | – | –
CCN(CC)C(=S)S [DITIOCARB] | > 1 | > 30 | – | > 30 | > 30 | > 30 | – | – | – | – | – | –
C[C@]12CCC(=O)C(O)=C1CC[C@@H]1[C@@H]2CC[C@]2(C)C(=O)CC[C@@H]12 [FORMESTANE] | – | – | – | – | – | – | > 30 | – | > 30 | > 30 | > 30 | > 30
CC[C@@H]([C@H](C)O)n1ncn(-c2ccc(N3CCN(c4ccc(OC[C@@H]5CO[C@@](Cn6cncn6)(c6ccc(F)cc6F)C5)cc4)CC3)cc2)c1=O [POSACONAZOLE] | > 1 | > 30 | – | > 30 | > 30 | > 30 | – | – | – | – | > 30 | –
CCC(C)C(CC)C(N)=O (stereo not drawn) [VALNOCTAMIDE] | – | – | – | – | – | – | – | > 30 | > 30 | > 30 | > 30 | > 30
C/N=C(\NC)NCc1ccccc1 [BETHANIDINE] | – | – | – | – | – | – | – | > 30 | > 30 | > 30 | > 30 | > 30
Cc1cc(C(C)(C)C)cc(C)c1CC1=NCCN1 [XYLOMETAZOLINE] | – | – | – | 0.0003 | – | – | > 30 | 20 | 1.16 | 0.0023 | 0.208 | > 30
C#C[C@]1(OC(C)=O)CC[C@H]2[C@@H]3CCC4=C/C(=N/O)CC[C@@H]4[C@H]3CC[C@@]21CC [NORGESTIMATE] | – | – | – | – | – | – | > 30 | > 30 | > 30 | > 30 | > 30 | > 30
